The structures appear in SMILES notation.

One assay relates to HCT 116 MTAP knockout cells. Description: Human colon cancer HCT116 cell proliferation inhibition test (MTAP knockout cells, CellTiter-Glo, 6 days). The format is cell-based.
Conditions: not given
The procedure: (§1) • 1. HCT 116 MTAP knockout and MTAP wild-type cells were plated in 96-well flat bottom 5 plates, and cultured overnight with McCoy's 5A medium containing […]+1% penicillin-streptomycin at 37° C. and 5% CO2. • 2. On the next day, the compound was dissolved with DMSO, diluted with DMSO and medium successively and transferred to the cell plate. The final concentration of the compound was 10 μM, the compound was diluted 4 times, with 9 concentration gradients, and DMSO control was added. • 3. Cells that have not been treated with the compound were removed. CellTiter-Glo Luminescent Cell Viability Assay (Promega) was used to detect cell viability, the operation was performed with reference to the package insert of the kit, and then the cell plate was placed on EnVision Multilabel Reader to detect the cold light signal. • 4. Meanwhile, the cell plate treated with the compound was cultured at 37° C. and 5% CO2 for 6 consecutive days. • 5. Then, CellTiter-Glo was also used to detect cell viability. • 6. Finally, the four-parameter dose-response curve module of GraphPad Prism v 9.2.0 software was used to plot the dose-response curve and calculate the IC50 for proliferation inhibition (unit: nM).
On the technique in general: ATP-based viability assays read luminescence as a measure of living cells.
For orientation: IC50 means the concentration that gives 50% inhibition. The molecule `Cn1ncc(-c2cc(C#N)c3c(=O)[nH]nc(CN)c3c2)c1-c1c(F)cc2ccccc2c1C#N` (atropisomer, axis not shown; (M)) [Example 5, (M)-1-(aminomethyl)-7-(5-(1-cyano-3-fluoronaphthalen-2-yl)-1-methyl-1H-pyrazol-4-yl)-4-oxo-3,4-dihydrophthalazine-5-carbonitrile] came in with an IC50 of 16 nM.
The same measure, in the same setting: the same measure for `Cn1ncc(-c2cc(C#N)c3c(=O)[nH]nc(CN)c3c2)c1-c1c(F)cc2ccccc2c1C#N` (atropisomer, axis not shown; (P)) [Example 4, (P)-1-(aminomethyl)-7-(5-(1-cyano-3-fluoronaphthalen-2-yl)-1-methyl-1H-pyrazol-4-yl)-4-oxo-3,4-dihydrophthalazine-5-carbonitrile]: 188 nM.

Still in this assay, the particulars now being: Homo sapiens, HCT-116, 144 h.
On to `Cn1ncc(-c2cc(C3CC3)c3c(=O)[nH]nc(CN)c3c2)c1-c1c(F)cc2ccccc2c1C#N` [Example 3, 2-(4-(4-(aminomethyl)-8-cyclopropyl-1-oxo-1,2-dihydrophthalazin-6-yl)-1-methyl-1H-pyrazol-5-yl)-3-fluoro-1-naphthalenenitrile], for which the IC50 is 29 nM.
As to `C#Cc1cc(-c2cnn(C)c2-c2c(F)c(Cl)cc(OC3CC3)c2C#N)cc2c(CN)n[nH]c(=O)c12` [Example 7, 2-(4-(4-(aminomethyl)-8-ethynyl-1-oxo-1,2-dihydrophthalazin-6-yl)-1-methyl-1H-pyrazol-5-yl)-4-chloro-6-cyclopropoxy-3-fluorobenzonitrile], the IC50 worked out at 27 nM.
Take `C#Cc1cc(-c2cnn(C)c2-c2c(F)c(Cl)cc(N3CCCC3)c2C#N)cc2c(CN)n[nH]c(=O)c12` [Example 10, 2-(4-(4-(aminomethyl)-8-ethynyl-1-oxo-1,2-dihydrophthalazin-6-yl)-1-methyl-1H-pyrazol-5-yl)-4-chloro-3-fluoro-6-(pyrrolidin-1-yl)benzonitrile]: the IC50 was 12 nM.
Still for that read-out and setting: to `Cn1ncc(-c2cc(C3CC3)c3c(=O)[nH]nc(CN)c3c2)c1-c1c(F)c(Cl)cc(N2CCCC2)c1C#N` [Example 11, 2-(4-(4-(aminomethyl)-8-cyclopropyl-1-oxo-1,2-dihydrophthalazin-6-yl)-1-methyl-1H-pyrazol-5-yl)-4-chloro-3-fluoro-6-(pyrrolidin-1-yl)benzonitrile] belongs 184 nM; to `Cn1ncc(-c2cnc3c(=O)[nH]nc(CN)c3c2)c1-c1c(F)cc2ccccc2c1C#N` [Example 12, 2-(4-(5-(aminomethyl)-8-oxo-7,8-dihydropyrido[2,3-d]pyridazin-3-yl)-1-methyl-1H-pyrazol-5-yl)-3-fluoro-1-naphthalenenitrile], 1970 nM; to `Cn1ncc(-c2cc(-c3ccccc3)c3c(=O)[nH]nc(CN)c3c2)c1-c1c(F)c(Cl)cc(OC2CC2)c1C#N` [Example 13, 2-(4-(4-(aminomethyl)-1-oxo-8-phenyl-1,2-dihydrophthalazin-6-yl)-1-methyl-1H-pyrazol-5-yl)-4-chloro-6-cyclopropoxy-3-fluorobenzonitrile], 122 nM.
Turning to `Cn1ncc(-c2ccc3c(=O)[nH]nc(CN)c3c2)c1-c1c(F)c(Cl)cc(N2CC(F)(F)C2)c1C#N` [Example 14, 2-(4-(4-(aminomethyl)-1-oxo-1,2-dihydrophthalazin-6-yl)-1-methyl-1H-pyrazol-5-yl)-4-chloro-6-(3,3-difluoroazetidin-1-yl)-3-fluorobenzonitrile], half-maximal inhibition (IC50) was put at 14 nM.
As for `Cn1ncc(-c2ccc3c(=O)[nH]nc(CN)c3c2)c1-c1c(F)c(N2CCOCC2)cc(OC2CC2)c1C#N` [Example 15, 2-(4-(4-(aminomethyl)-1-oxo-1,2-dihydrophthalazin-6-yl)-1-methyl-1H-pyrazol-5-yl)-6-cyclopropoxy-3-fluoro-4-morpholinobenzonitrile], the IC50 is 100 nM.
Turning to `Cn1ncc(-c2ccc3c(=O)[nH]nc(CN)c3c2)c1-c1c(F)c(N2CCCC2)cc(OC2CC2)c1C#N` [Example 16, 2-(4-(4-(aminomethyl)-1-oxo-1,2-dihydrophthalazin-6-yl)-1-methyl-1H-pyrazol-5-yl)-6-cyclopropoxy-3-fluoro-4-(pyrrolidin-1-yl)benzonitrile], 21 nM corresponded to half-maximal inhibition (IC50).
The molecule `Cn1ncc(-c2ccc3c(=O)[nH]nc(CN)c3c2)c1-c1c(F)c(N2CCC2)cc(OC2CC2)c1C#N` [Example 17, 2-(4-(4-(aminomethyl)-1-oxo-1,2-dihydrophthalazin-6-yl)-1-methyl-1H-pyrazol-5-yl)-4-(azetidin-1-yl)-6-cyclopropoxy-3-fluorobenzonitrile] came in with an IC50 of 113 nM.
As for `CC1CCCN1c1cc(Cl)c(F)c(-c2c(-c3ccc4c(=O)[nH]nc(CN)c4c3)cnn2C)c1C#N` (stereo not drawn) [Example 20, 2-(4-(4-(aminomethyl)-1-oxo-1,2-dihydrophthalazin-6-yl)-1-methyl-1H-pyrazol-5-yl)-4-chloro-3-fluoro-6-(2-methylpyrrolidin-1-yl)benzonitrile], the IC50 stood at 61 nM.
As for `Cn1ncc(-c2ccc3c(=O)[nH]nc(CN)c3c2)c1-c1c(F)c(Cl)cc(N2C3CCC2CC3)c1C#N` [Example 21, 2-(4-(4-(aminomethyl)-1-oxo-1,2-dihydrophthalazin-6-yl)-1-methyl-1H-pyrazol-5-yl)-6-(7-azabicyclo[2.2.1]heptan-7-yl)-4-chloro-3-fluorobenzonitrile], the IC50 came to 161 nM.
Regarding `Cn1ncc(-c2ccc3c(=O)[nH]nc(CN)c3c2)c1-c1c(F)c(Cl)cc(N2CCCCC2)c1C#N` [Example 22, 2-(4-(4-(aminomethyl)-1-oxo-1,2-dihydrophthalazin-6-yl)-1-methyl-1H-pyrazol-5-yl)-4-chloro-3-fluoro-6-(piperidin-1-yl)benzonitrile], the IC50 worked out at 116 nM.
On to `CN(C)C1CN(c2cc(OC3CC3)c(C#N)c(-c3c(-c4ccc5c(=O)[nH]nc(CN)c5c4)cnn3C)c2F)C1` [Example 24, 2-(4-(4-(aminomethyl)-1-oxo-1,2-dihydrophthalazin-6-yl)-1-methyl-1H-pyrazol-5-yl)-6-cyclopropoxy-4-(3-(dimethylamino)azetidin-1-yl)-3-fluorobenzonitrile], for which the IC50 came out at 229 nM.
As for `Cn1ncc(-c2ccc3c(=O)[nH]nc(CN)c3c2)c1-c1c(F)c(N2CCC(O)C2)cc(OC2CC2)c1C#N` (stereo not drawn) [Example 25, 2-(4-(4-(aminomethyl)-1-oxo-1,2-dihydrophthalazin-6-yl)-1-methyl-1H-pyrazol-5-yl)-6-cyclopropoxy-3-fluoro-4-(3-hydroxypyrrolidin-1-yl)benzonitrile], the IC50 came out at 567 nM.
Molecule `CN(C)C1CCN(c2cc(OC3CC3)c(C#N)c(-c3c(-c4ccc5c(=O)[nH]nc(CN)c5c4)cnn3C)c2F)C1` (stereo not drawn) [Example 27, 2-(4-(4-(aminomethyl)-1-oxo-1,2-dihydrophthalazin-6-yl)-1-methyl-1H-pyrazol-5-yl)-6-cyclopropoxy-4-(3-(dimethylamino)pyrrolidin-1-yl)-3-fluorobenzonitrile] showed an IC50 of 262 nM.
`Cn1ncc(-c2ccc3c(=O)[nH]nc(CN)c3c2)c1-c1c(F)c(Cl)cc(N2CC3(C2)CC(F)(F)C3)c1C#N` [Example 31, 2-(4-(4-(aminomethyl)-1-oxo-1,2-dihydrophthalazin-6-yl)-1-methyl-1H-pyrazol-5-yl)-4-chloro-6-(6,6-difluoro-2-azaspiro[3.3]heptan-2-yl)-3-fluorobenzonitrile] yielded an IC50 of 93 nM.
Still for that read-out and setting: the same measure for `Cn1ncc(-c2ccc3c(=O)[nH]nc(CN)c3c2)c1-c1c(F)c(Cl)cc(N2CCC2)c1C#N` [Example 32, 2-(4-(4-(aminomethyl)-1-oxo-1,2-dihydrophthalazin-6-yl)-1-methyl-1H-pyrazol-5-yl)-6-(azetidin-1-yl)-4-chloro-3-fluorobenzonitrile]: 57 nM.
Same read-out and setting: to `Cn1ncc(-c2ccc3c(=O)[nH]nc(CN)c3c2)c1-c1c(F)c(Cl)cc(N2CCC3(CC2)CC3(F)F)c1C#N` [Example 33, 2-(4-(4-(aminomethyl)-1-oxo-1,2-dihydrophthalazin-6-yl)-1-methyl-1H-pyrazol-5-yl)-4-chloro-6-(1,1-difluoro-6-azaspiro[2.5]octan-6-yl)-3-fluorobenzonitrile] belongs 57 nM.
As for `Cn1ncc(-c2ccc3c(=O)[nH]nc(CN)c3c2)c1-c1c(F)c(Cl)cc(N2CC(F)C2)c1C#N` [Example 34, 2-(4-(4-(aminomethyl)-1-oxo-1,2-dihydrophthalazin-6-yl)-1-methyl-1H-pyrazol-5-yl)-4-chloro-3-fluoro-6-(3-fluoroazetidin-1-yl)benzonitrile], half-maximal inhibition (IC50) required 84 nM.
`Cn1ncc(-c2ccc3c(=O)[nH]nc(CN)c3c2)c1-c1c(F)c(Cl)cc(N2CC(C)(O)C2)c1C#N` [Example 35, 2-(4-(4-(aminomethyl)-1-oxo-1,2-dihydrophthalazin-6-yl)-1-methyl-1H-pyrazol-5-yl)-4-chloro-3-fluoro-6-(3-hydroxy-3-methylazetidin-1-yl)benzonitrile]: 922 nM corresponded to half-maximal inhibition (IC50).
With `Cn1ncc(-c2ccc3c(=O)[nH]nc(CN)c3c2)c1-c1c(F)c(Cl)cc(OC2CC(F)(F)C2)c1C#N` [Example 37, 2-(4-(4-(aminomethyl)-1-oxo-1,2-dihydrophthalazin-6-yl)-1-methyl-1H-pyrazol-5-yl)-4-chloro-6-(3,3-difluorocyclobutoxy)-3-fluorobenzonitrile], the 50% inhibitory concentration (IC50) worked out at 133 nM.

In a further assay the test system is HCT 116 MTAP wild-type cells. Description: Human colon cancer HCT116 cell proliferation inhibition test (MTAP wild-type cells, CellTiter-Glo, 6 days). The format is cell-based. Conditions: HCT-116, 144 h. As to the method:
as §1
Regarding `Cn1ncc(-c2cc(C3CC3)c3c(=O)[nH]nc(CN)c3c2)c1-c1c(F)cc2ccccc2c1C#N` [Example 3, 2-(4-(4-(aminomethyl)-8-cyclopropyl-1-oxo-1,2-dihydrophthalazin-6-yl)-1-methyl-1H-pyrazol-5-yl)-3-fluoro-1-naphthalenenitrile], the 50% inhibitory concentration (IC50) was 1050 nM.
In turn, `Cn1ncc(-c2ccc3c(=O)[nH]nc(CN)c3c2)c1-c1c(F)c(Cl)cc(N2CC(F)(F)C2)c1C#N` [Example 14, 2-(4-(4-(aminomethyl)-1-oxo-1,2-dihydrophthalazin-6-yl)-1-methyl-1H-pyrazol-5-yl)-4-chloro-6-(3,3-difluoroazetidin-1-yl)-3-fluorobenzonitrile] showed an IC50 of 2360 nM.
In turn, `Cn1ncc(-c2ccc3c(=O)[nH]nc(CN)c3c2)c1-c1c(F)c(N2CCCC2)cc(OC2CC2)c1C#N` [Example 16, 2-(4-(4-(aminomethyl)-1-oxo-1,2-dihydrophthalazin-6-yl)-1-methyl-1H-pyrazol-5-yl)-6-cyclopropoxy-3-fluoro-4-(pyrrolidin-1-yl)benzonitrile] showed an IC50 of 2540 nM.
